For one data set, the system named is human pathogen bacteria. Nature of the data set: Bactericidal activity (time-kill study). In kind it is cell-based. The conditions noted are these: roughly 10^7 cfu/mL in PBS pH 7.4; for time to reach 3 log reduction: time-kill, 2×MIC and 4×MIC; for cells killed: at 2×MIC and 4×MIC, within 1 hour. The method, then: Bactericidal activity (time-kill study): an in vitro assay was performed to test the bactericidal effect of each sophorolipid derivatives on human pathogen bacteria viability. […] After 15 min, 45 min, 1 h and 3 h incubation, cells were spread on agar plates, incubated at 37° C. for 18 hours and examined for colonies. An untreated cells vial (i.e. no SL added) was used as the control.
To further investigate if the growth inhibition by sophorolipid derivatives is associated with cell death, i.e. if sophorolipid derivatives are bactericidal or bacteriostatic, time-kill studies were performed. […] Moreover, the killing rate was higher for these sophorolipid ester derivatives than natural di-acetylated lactonic sophorolipid that requires almost 2 hours to reach a 3 log reduction.

For data set [1] the following is noted: prior art statement; cited from earlier work.
A further data set relates to Listeria innocua. As to the kind of experiment: Minimum inhibitory concentration (MIC), broth microdilution. In kind it is cell-based. The conditions noted are these: for MIC: Listeria innocua, read-out: Minimum Inhibitory Concentration (MIC) Listeria Innocua; for activity against Listeria innocua (in words): MIC assay, up to 128 μg/mL. How it is done: (§1) Sophorolipid ester derivatives, as well as the diacetate lactonic sophorolipid have inhibitory activity against a range of human pathogenic bacteria, which was confirmed by experiments and observations. Sophorolipid samples were dissolved in pure DMSO to a final concentration of 2.56 mg/mL that was used as a stock solution. Except the first row, the wells of a 96-well microplate were loaded with 100 μL of sterilized PBS buffer. The stock solution (20 μL) and sterilized PBS buffer pH 7.4 (180 μL) was added into the first row of the 96-well microplate and serially diluted (2-fold dilution) from 256 μg/mL to 2 μg/mL using PBS buffer. After serial dilution, 100 μL of fresh bacteria cells (10^6 cfu/mL) suspended in Soy broth (SB) or Mueller Hinton broth (MHB) culture medium were added to each well and the plates were incubated for 16 or 30 hours. Wells with only cells in 5% DMSO in PBS/medium (no SL) and with only 5% DMSO in PBS/medium (no SL and no cells) were used as positive and negative controls, respectively. […] Lactonic SL as well as all SL esters except SL hexyl ester (no activity against all strains) and SL pentyl ester (no activity against B. Subtilis) were active against all three gram-positive bacterial strains tested (B. Cereus, B. Subtilis, Listeria innocua). The unexpected result in Table 2 is that, as the chain length of the sophorolipid ester increased from methyl to ethyl, propyl and butyl, the MIC values for B. Cereus, B. Subtilis and L. Innocua decrease. The pentyl ester has similarly low MIC values as the butyl ester derivative for B. Cereus and L. Innocua.

Another data set deals with B. Subtilis. The data set is described as above. In kind it is cell-based. To be noted: for MIC: Bacillus subtilis, read-out: Minimum Inhibitory Concentration (MIC) B. Subtilis; for activity against B. Subtilis (in words): MIC assay, up to 128 μg/mL. The method, then: as §1
For another data set, the system named is B. Cereus. The description is as above. To be noted: for MIC: Bacillus cereus, read-out: Minimum Inhibitory Concentration (MIC) B. Cereus; for activity against B. Cereus (in words): MIC assay, up to 128 μg/mL. In kind it is cell-based. How it is done:
as §1

The nature of data set [2]: Solubility in water / aqueous systems (statement). The conditions noted are these: aqueous formulations. In kind it is physicochemical.
The mark [3] stands for this setting: incubation time 30 h, 10^6 cfu/mL, no visible growth.
Where [4] appears, read: incubation time 16 h, 10^6 cfu/mL, no visible growth.

In brackets after ≈: the same amount, converted by molar mass. Like-named read-outs stand apart in the source and are kept apart here.

Turning to `CC(=O)OCC1OC2OC(C)CCCCCC/C=C\CCCCCCCC(=O)OC3C(COC(C)=O)OC(OC2C(O)C1O)C(O)C3O` (centres unmarked) [Lactonic SL, LSL 6′,6″-diacetate, reference compound], in the data set on human pathogen bacteria, the “time to reach 3 log reduction” value was around 2 hour. Besides, in data set [1], the “solubility in aqueous systems (in words)” value was “very low solubility”. Also, the results for the MIC with Listeria innocua (setting [3]), in the data set on B. Subtilis (setting [4]) and with B. Cereus (setting [4]) were 32 µg/mL (≈ 46.5 µM), 8 µg/mL (≈ 11.6 µM) and 16 µg/mL (≈ 23.2 µM), respectively. Moreover, in the data set on Listeria innocua, the “activity against Listeria innocua (in words)” value is “active”. The “activity against B. Subtilis (in words)” value in the data set with B. Subtilis is on record as “active”. In addition, the “activity against B. Cereus (in words)” value in the data set on B. Cereus was “active”. For the same compound, the “water solubility (in words)” value in data set [2] is reported as “low water solubility”.

Take `CCCCOC(=O)CCCCCCC/C=C\CCCCCCC(C)OC1OC(CO)C(O)C(O)C1OC1OC(CO)C(O)C(O)C1O` (centres unmarked) [SL Butyl ester]: the cells killed result in the data set with human pathogen bacteria is recorded as “more than 99.9%”. The “time to reach 3 log reduction” value in the data set with human pathogen bacteria is given as at most 1 hour. The MIC in the data set with Listeria innocua (setting [3]), in the data set on B. Subtilis (setting [4]) and in the data set on B. Cereus (setting [4]) was 8 µg/mL (≈ 11.8 µM) each time.

As for `CCOC(=O)CCCCCCC/C=C\CCCCCCC(C)OC1OC(CO)C(O)C(O)C1OC1OC(CO)C(O)C(O)C1O` (centres unmarked) [SL Ethyl ester], the MIC with Listeria innocua (setting [3]), in the data set on B. Subtilis (setting [4]) and in the data set with B. Cereus (setting [4]) was 32 µg/mL (≈ 49.2 µM) each time.

As for `COC(=O)CCCCCCC/C=C\CCCCCCC(C)OC1OC(CO)C(O)C(O)C1OC1OC(CO)C(O)C(O)C1O` (centres unmarked) [SL Methyl ester], the cells killed result in the data set with human pathogen bacteria is “more than 99.9%”. In addition, the “time to reach 3 log reduction” value in the data set with human pathogen bacteria is reported as at most 1 hour. Moreover, the MIC was determined as 64 µg/mL (≈ 101 µM) in the data set on Listeria innocua (30 h), 32 µg/mL (≈ 50.3 µM) in the data set on B. Subtilis (16 h) and 32 µg/mL (≈ 50.3 µM) with B. Cereus (16 h).

Consider `CCCOC(=O)CCCCCCC/C=C\CCCCCCC(C)OC1OC(CO)C(O)C(O)C1OC1OC(CO)C(O)C(O)C1O` (centres unmarked) [SL Propyl ester], for which, in the data set with human pathogen bacteria, the cells killed entry was “more than 99.9%”. Moreover, the “time to reach 3 log reduction” value in the data set with human pathogen bacteria was at most 1 hour. For the same compound, the MIC in the data set on Listeria innocua (setting [3]) turned out to be 25 µg/mL (≈ 37.6 µM); in the data set on B. Subtilis (setting [4]), 25 µg/mL (≈ 37.6 µM); in the data set on B. Cereus (setting [4]) it was 16 µg/mL (≈ 24.1 µM).

For the compound SL Hexyl ester, the “activity against Listeria innocua (in words)” value in the data set with Listeria innocua was “no activity”. In addition, in the data set on Listeria innocua (setting [3]), the “Minimum Inhibitory Concentration (MIC) Listeria Innocua” value was above 128 µg/mL. For the same compound, the “activity against B. Subtilis (in words)” value in the data set on B. Subtilis is recorded as “no activity”. For the same compound, the “Minimum Inhibitory Concentration (MIC) B. Subtilis” value with B. Subtilis (setting [4]) was above 128 µg/mL. In addition, the “activity against B. Cereus (in words)” value in the data set on B. Cereus was “no activity”. Also, the “Minimum Inhibitory Concentration (MIC) B. Cereus” value with B. Cereus (setting [4]) is above 128 µg/mL.

With SL Pentyl ester, the “Minimum Inhibitory Concentration (MIC) Listeria Innocua” value in the data set with Listeria innocua (setting [3]) stood at 8 µg/mL. Moreover, in the data set with B. Subtilis, the “activity against B. Subtilis (in words)” value was “no activity”. For the same compound, the “Minimum Inhibitory Concentration (MIC) B. Subtilis” value in the data set with B. Subtilis (setting [4]) was above 128 µg/mL; in the data set on B. Subtilis (incubation time 16 h, 10^6 cfu/mL, no visible growth, listed as pentyl ester), above 128 µg/mL. Also, the “Minimum Inhibitory Concentration (MIC) B. Cereus” value in the data set on B. Cereus (setting [4]) is 8 µg/mL.

Values taken from patent publication US20170143753A1, “SOPHOROLIPID ESTER CHAIN LENGTH DEPENDENCE ON THE INHIBITION OF HUMAN PATHOGENS” (Syntehzyme LLC, priority 2011, published 2017).
